Columns and labels:
TLR7 = biological target: T1, TLR7 (Mus musculus, UniProt P58681); assay: IRM-stimulated TNF-α production by RAW 264.7 cells overexpressing TLR7; format: cell-based, murine
T1 construct: expressed in transfected cells; host or cells: RAW 264.7 (pIRES vector)
T1 sequence (P58681 27-1050): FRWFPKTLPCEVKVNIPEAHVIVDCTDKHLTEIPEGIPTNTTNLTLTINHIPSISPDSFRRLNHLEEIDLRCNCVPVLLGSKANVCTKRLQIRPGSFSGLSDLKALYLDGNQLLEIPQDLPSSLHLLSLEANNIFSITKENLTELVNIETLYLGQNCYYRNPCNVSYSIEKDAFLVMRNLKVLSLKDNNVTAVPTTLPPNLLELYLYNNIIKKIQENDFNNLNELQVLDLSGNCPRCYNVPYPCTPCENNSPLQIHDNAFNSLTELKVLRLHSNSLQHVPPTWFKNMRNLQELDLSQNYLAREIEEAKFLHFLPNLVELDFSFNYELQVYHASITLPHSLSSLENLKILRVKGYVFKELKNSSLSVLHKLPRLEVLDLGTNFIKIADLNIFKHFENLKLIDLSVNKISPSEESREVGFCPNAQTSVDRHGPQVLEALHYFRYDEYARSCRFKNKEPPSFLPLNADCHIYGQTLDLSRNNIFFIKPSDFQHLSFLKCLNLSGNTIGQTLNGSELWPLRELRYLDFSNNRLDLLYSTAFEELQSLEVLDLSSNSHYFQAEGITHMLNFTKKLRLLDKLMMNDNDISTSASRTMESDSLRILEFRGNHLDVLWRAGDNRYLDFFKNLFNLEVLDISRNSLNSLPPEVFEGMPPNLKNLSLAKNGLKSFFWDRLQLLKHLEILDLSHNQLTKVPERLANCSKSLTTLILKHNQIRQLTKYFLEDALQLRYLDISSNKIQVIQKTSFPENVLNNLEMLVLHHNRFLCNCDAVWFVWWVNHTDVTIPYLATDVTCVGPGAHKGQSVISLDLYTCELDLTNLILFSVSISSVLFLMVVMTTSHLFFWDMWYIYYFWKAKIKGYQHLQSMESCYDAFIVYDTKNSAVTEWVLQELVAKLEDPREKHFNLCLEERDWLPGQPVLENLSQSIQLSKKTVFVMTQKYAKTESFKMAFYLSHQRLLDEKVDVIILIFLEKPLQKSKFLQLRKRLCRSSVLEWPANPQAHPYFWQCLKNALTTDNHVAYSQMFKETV
Description: The murine TLR wild-type vectors were generated by PCR amplification from RAW 264.7 cell cDNA with TLR6 specific primers (sense primer: SEQ ID NO 13; antisense primer: SEQ ID NO 14) or TLR7 specific primers (sense primer: SEQ ID NO 15; antisense primer: SEQ ID NO 16) by Pfu Turbo DNA polymerase kit (Stratagene, La Jolla, Calif.). The PCR products were inserted into pCR-Blunt II-TOPO for sequence verification and then subcloned into pIRES (BD Biosciences Clontech, Palo Alto, Calif.) for expression in mammalian cells.
THP-1 cells or RAW 264.7 cells were cultured and transfected with the wild type TLR 6 or wild type TLR 7 plasmids described above. The transfections were performed as in Example 1 with a 4:1 ratio of wild-type TLR to H2K plasmid (THP-1 cells) or CD4 (RAW 264.7 cells).
RAW 264.7 cells were stimulated with various concentrations of resiquimod and analyzed as described in Example 1. Results are provided in Table 4 and are expressed as fold increase in TNF-α production as compared to control transfected RAW 264.7 cells.

TLR6 = biological target: T2, TLR6 (Mus musculus, UniProt Q9EPW9, P680H); assay: TNF-α production by RAW 264.7 cells transfected with TLR6DN; format: cell-based
T2 construct: expressed in transfected cells; host or cells: RAW 264.7 (pIRES vector)
Description: A murine TLR6 dominant negative construct was generated by PCR mutation during amplification from RAW 264.7 cell cDNA. The 5′ and 3′ regions flanking a codon encoding proline 691 were amplified with primers (5′ sense: SEQ ID NO 1; 5′ antisense: SEQ ID NO 2; 3′sense: SEQ ID NO 3; 3′ antisense: SEQ ID NO 4) that changed the codon for proline 691 to a codon encoding histidine while introducing a unique Apa LI restriction enzyme site at the position of the mutation. The 5′ and 3′ sections of the TLR6 were amplified by Pfu Turbo DNA polymerase kit (Stratagene, La Jolla, Calif.). The PCR sections were inserted into pCR-Blunt II-TOPO for sequence verification. The two sections were joined together when subcloned into pIRES (Clontech, Palo Alto, Calif.) for expression in mammalian cells.
RAW 264.7 cells were co-transfected with a truncated human CD4 for RAW 264.7 cells in a 4:1 ratio of TLR plasmid to CD4 plasmid. Transfection of RAW 264.7 cells was carried out using the transfection reagent DoTaP (Roche Diagnostics Corp., Indianapolis, Ind.) according to the manufacturer's specifications. […]
TNF-α levels were measured with a commercial Human TNF-α ELISA kit (Biosource International, Inc., Camarillo, Calif.) according to the manufacturer's specifications. […]

T2 sequence (Q9EPW9 28-795 P680H): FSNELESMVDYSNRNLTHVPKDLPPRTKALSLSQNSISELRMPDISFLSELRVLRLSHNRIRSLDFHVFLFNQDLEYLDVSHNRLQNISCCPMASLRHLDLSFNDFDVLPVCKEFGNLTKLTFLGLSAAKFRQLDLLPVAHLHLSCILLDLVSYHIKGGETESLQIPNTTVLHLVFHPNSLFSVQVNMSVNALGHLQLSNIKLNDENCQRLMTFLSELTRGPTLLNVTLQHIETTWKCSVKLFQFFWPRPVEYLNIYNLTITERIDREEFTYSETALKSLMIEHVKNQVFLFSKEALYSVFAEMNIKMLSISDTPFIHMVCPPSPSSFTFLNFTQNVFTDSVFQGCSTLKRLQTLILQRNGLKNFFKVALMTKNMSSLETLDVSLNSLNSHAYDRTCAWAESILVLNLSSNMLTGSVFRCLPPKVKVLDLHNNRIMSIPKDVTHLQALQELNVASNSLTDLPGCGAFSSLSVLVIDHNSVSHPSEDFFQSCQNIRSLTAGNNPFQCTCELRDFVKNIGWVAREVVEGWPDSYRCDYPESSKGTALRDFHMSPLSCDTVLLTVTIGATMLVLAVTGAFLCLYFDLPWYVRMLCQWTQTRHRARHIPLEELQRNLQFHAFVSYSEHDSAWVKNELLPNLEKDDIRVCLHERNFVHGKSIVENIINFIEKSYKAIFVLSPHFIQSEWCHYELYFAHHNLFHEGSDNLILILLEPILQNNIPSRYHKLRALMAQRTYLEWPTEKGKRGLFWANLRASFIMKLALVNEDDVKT
T2 sequence (Q9QUN7 25-784 partner): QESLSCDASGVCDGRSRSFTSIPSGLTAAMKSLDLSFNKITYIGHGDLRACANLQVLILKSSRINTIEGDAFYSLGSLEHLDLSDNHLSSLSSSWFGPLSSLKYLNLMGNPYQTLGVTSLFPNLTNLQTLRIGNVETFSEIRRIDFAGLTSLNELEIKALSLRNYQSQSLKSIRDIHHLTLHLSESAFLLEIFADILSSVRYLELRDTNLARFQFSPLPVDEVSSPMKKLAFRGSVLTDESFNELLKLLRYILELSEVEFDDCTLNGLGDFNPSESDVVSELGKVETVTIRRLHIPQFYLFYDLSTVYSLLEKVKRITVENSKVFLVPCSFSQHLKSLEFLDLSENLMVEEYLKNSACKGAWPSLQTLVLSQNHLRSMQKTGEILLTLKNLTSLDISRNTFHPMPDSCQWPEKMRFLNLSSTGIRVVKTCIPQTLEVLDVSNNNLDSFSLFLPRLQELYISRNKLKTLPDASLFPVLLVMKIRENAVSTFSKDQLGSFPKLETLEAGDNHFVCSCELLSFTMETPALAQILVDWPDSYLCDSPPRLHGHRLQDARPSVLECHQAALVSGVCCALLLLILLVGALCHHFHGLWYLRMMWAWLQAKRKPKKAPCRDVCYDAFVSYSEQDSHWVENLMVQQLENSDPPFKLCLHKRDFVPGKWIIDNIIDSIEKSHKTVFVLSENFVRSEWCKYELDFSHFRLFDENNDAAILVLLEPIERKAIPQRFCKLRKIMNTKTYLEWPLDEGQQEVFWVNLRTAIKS

Fold increase in TNF-α production over control, TLR7 (TLR7; RAW 264.7 overexpressing TLR7, 0.0004 μM): 14.8 fold | Fold increase in TNF-α production over control, TLR7 (TLR7; RAW 264.7 overexpressing TLR7, 0.001 μM): 8.9 fold | Fold increase in TNF-α production over control, TLR7 (TLR7; RAW 264.7 overexpressing TLR7, 0.004 μM): 5.8 fold | Fold increase in TNF-α production over control, TLR7 (TLR7; RAW 264.7 overexpressing TLR7, 0.012 μM): 3.8 fold | Fold increase in TNF-α production over control, TLR7 (TLR7; RAW 264.7 overexpressing TLR7, 0.037 μM): 3.5 fold | Fold increase in TNF-α production over control, TLR7 (TLR7; RAW 264.7 overexpressing TLR7, 1 μM): 1.3 fold | Fold increase in TNF-α production over control, TLR7 (TLR7; RAW 264.7 overexpressing TLR7, 3 μM): 1.0 fold | Fold increase in TNF-α production over control, TLR7 (TLR7; RAW 264.7 overexpressing TLR7, 10 μM): 1.5 fold | TLR7 agonist character (in words) (TLR7; from TLR7 overexpression in RAW 264.7 cells): agonist | Effect of TLR6DN on stimulus-induced TNF-α production (in words) (TLR6; compared with stimulation by LPS): inhibited to a much greater extent | % inhibition of TNF-α production (TLR6DN) (TLR6; stimulus 3 μM): 70.9%
SMILES: CCOCc1nc2c(N)nc3ccccc3c2n1CC(C)(C)O [Resiquimod, 4-amino-2-ethoxymethyl-α,α-dimethyl-1H-imidazo[4,5-c]quinoline-1-ethanol]
